# Legend:
# Format in all cases: cell-based
# GPR174 [1] = target: T1, GPR174 (Homo sapiens, UniProt Q9BXC1); experiment: CRE-Luc reporter Gs signaling assay, cells transfected with GPR174; parameters: host or cells: HEK293 or CHO cell lines (ATCC); details: for effect on Gs pathway in the presence of GPR174: CRE-Luc reporter
# Description: (§1) Compounds were tested in the reporter system with increasing concentrations of GPR174-interacting compounds. GPR174 construct pCMV6-XL4-GPR174 or ADBR2, reporter of interest, pCRE-Luc or GL4.29 (3000 ng), and TK-renilla as an internal control (10 ng) with lipofectamine 2000 (60 ug) (Invitrogen, CA) according to the manufacturer's directions.
# (§2) The DNA/lipofectamine 2000 mix (3000 μL) was incubated at room temperature for 30 minutes and then added into a 10 cm culture dish (Corning, NY) containing 70-90% confluent cultured cells, typically HEK293 or CHO cell lines (ATCC, VA), in 15 mL of media. The cells were further incubated for 4-6 hours at 37° C. and then media were removed and cells were detached with 2 mL trypsin (Life Technologies, CA). Media (26 mL) were added to the detached cells and 120 μL of transfected cells were transferred to each well on a 96-well plate. Increasing concentration of each compound in DMSO (1.2 μl) was added to the cells after plating into the 96-well plate. The cells were further incubated at 37° C. for various times. The media were removed and the cells lysed. Luciferase and renilla activities were measured with the Dual-luciferase assay system (Promega, WI) according to the manufacturer's directions. Typically, lysis buffer (25 μL) was added to the cells and incubated at room temperature for 20-30 minutes to allow for the cells to lyse. The lysate (10 μL) was measured for luciferase and renilla activity with LARII and Stop&Glo reagent (50 μL each) with a SpectraMax L (Molecular Devices, CA). Data were analyzed with either Excel (Microsoft, WA) or Prism 4.03 (GraphPad, CA).
# (§3) ADBR2 is a GPCR, like GPR174, that activates the Gs signaling pathway.
# Target sequence in this assay (Q9BXC1 whole entry): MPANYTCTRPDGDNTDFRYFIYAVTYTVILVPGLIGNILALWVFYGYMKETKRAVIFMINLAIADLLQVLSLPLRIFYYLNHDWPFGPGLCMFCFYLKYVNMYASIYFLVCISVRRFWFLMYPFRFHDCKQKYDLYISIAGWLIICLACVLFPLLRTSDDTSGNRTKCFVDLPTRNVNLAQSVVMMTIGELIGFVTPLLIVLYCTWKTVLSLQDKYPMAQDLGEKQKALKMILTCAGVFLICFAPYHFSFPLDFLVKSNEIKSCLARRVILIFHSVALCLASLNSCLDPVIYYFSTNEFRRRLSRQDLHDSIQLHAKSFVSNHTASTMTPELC
# GPR174 [2] = target: T1, GPR174; experiment: GloSensor assay, GPR174, with or without LysoPS; parameters: host or cells: HEK293 or CHO cell lines (ATCC)
# Description: (§4) In order to confirm that GPR174 interacting compound #4 is an antagonist of GPR174-mediated Gs signaling, a GloSensor assay was carried out with increasing concentrations of compound #4 in the presence or absence of a fixed concentration (1 μM) of the GPR174 agonist LysoPS as follows.
# (§5) The GloSensor Assay was performed by transiently transfecting the GPR174 construct, pCMV6-XL4-GPR174 or ADBR2, pGlo22 (300 ng) (Promega) with lipofectamine 2000 (60 μg) (Invitrogen, CA) according to the manufacturer's directions. The DNA/lipofectamine 2000 mix (3000 μL) was incubated at room temperature for 30 minutes and then added into a 10 cm culture dish (Corning, NY) containing 70-90% confluent cultured cells, typically HEK293 or CHO cell lines (ATCC, VA), in 15 mL of media. […] The cells were then incubated at room temperature for 2 hours and the cell plates were pre-read with a SpectraMax L (Molecular Devices, CA). After the pre-read, increasing concentrations of each compound in DMSO (1.0 μl) was added to the cells. The cell plates containing the compound were read immediately after the compound was added and at various times up to 30 minutes after the addition of the compound with a SpectraMax L (Molecular Devices, CA). Data were analyzed with either Excel (Microsoft, WA) or Prism 4.03 (GraphPad, CA).
# Target sequence in this assay (Q9BXC1 whole entry, species assumed): as the sequence (Q9BXC1 whole entry) above
# GPR174 [3] = target: T1, GPR174; experiment: Cellular Redistribution Assay (CRA) against GPR174; parameters: fused on or other part: No tag or reporter is given; details: FIG. 5A
# Source text: One method for identifying compounds capable of modulating a receptor is using a cellular redistribution assay (“CRA”). Exemplary CRA methods are found in U.S. Pat. No. 7,309,576 issued to O'Dowd et al. and in O'Dowd et al., J. Biomol. Screen. 12:175-85, 2007. […] Incorporation of the NLS alters the cellular localization of the GPCR, such that the majority of the NLS-modified receptor is present in the cell interior. An NLS-modified GPCR, when interacting with a functionally active compound, is mostly localized on the cell surface. Thus, it becomes possible to identify receptor modulators without knowledge of the endogenous ligand or a surrogate ligand.
# The inventors have identified a number of compounds that inhibit GPR174 using a CRA assay similar to that described in U.S. Pat. No. 7,309,576 and in O'Dowd et al., J. Biomol. Screen. 12:175-85, 2007. These compounds are described in detail below.
# (§6) The inventors used a CRA similar to that described in U.S. Pat. No. 7,309,576 and O'Dowd et al., J. Biomol. Screen. 12:175-85, 2007 to identify compounds that are capable of interacting with GPR174 using a library of approximately 370,000 chemical entities. Briefly described, the CRA assay described in U.S. Pat. No. 7,309,576 involves artificially inserting a NLS into the dopamine D1 receptor (DRD1), which allows the receptor to traffic from the cell membrane to the cell interior, and that the binding of antagonists to the receptor retained the receptor at the cell surface, while removal of the ligand allowed the receptor to continue to internalize from the cell surface. Both antagonists and agonists that selectively bound the receptor retained the receptor on the plasma membrane. GPR174 constructs were generated for use in a CRA-based compound screening assay. From this screen, the inventors initially identified compounds of formula I-VI, as described herein and included in TABLE 1.
# Target sequence in this assay (Q9BXC1 1-290 limits assumed): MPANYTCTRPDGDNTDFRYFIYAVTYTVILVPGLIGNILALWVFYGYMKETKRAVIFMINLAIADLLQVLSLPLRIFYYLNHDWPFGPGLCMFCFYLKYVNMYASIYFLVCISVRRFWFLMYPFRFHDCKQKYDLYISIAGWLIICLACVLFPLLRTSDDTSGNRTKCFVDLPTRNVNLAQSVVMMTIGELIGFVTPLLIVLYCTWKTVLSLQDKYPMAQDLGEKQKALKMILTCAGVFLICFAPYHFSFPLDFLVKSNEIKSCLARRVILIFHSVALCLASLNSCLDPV
# ADBR2 [4] = target: T2, ADBR2 (Homo sapiens, UniProt P07550); experiment: CRE-Luc reporter Gs signaling assay, control receptor ADBR2
# T2 construct: host or cells: HEK293 or CHO cell lines (ATCC)
# Description: as §1, §2, §3
# CHRM1 = experiment: Cellular Redistribution Assay (CRA) against CHRM1; details: FIG. 5B
# Source text: as §6
# The inventors also sought to validate that the compounds identified using the CRA are modulatory compounds. To this end, the above-described CRA was used to screen a library for compounds that interact with three control non-orphan receptors, and the results of this screen were compared to the results of screening the same library for compound that were identified using a Fluorometric Imaging Plate Reader (FLIPR) assay, a conventional technique commonly used to identify compounds interacting with non-orphan GPCRs signaling through Ca+. Three non-orphan GPCRs—Muscarinic acetylcholine receptor M1 (CHRM1), Adrenergic receptor alpha 1a (ADRA1a), and Neuropeptide S receptor (NPSR)—were screened against a 10,000-compound GPCR-focused library. Thirty interacting compound “hits” were identified using the CRA, and eighty-one hits were identified using the FLIPR for the CHRM1 receptor; 9 CRA hits and 29 FLIPR hits for the NPS receptor were identified; and 110 CRA hits and 110 FLIPR hits for ADRA1a.
# In addition, the CRA can also provide the relative potencies of compounds against the target receptor.
# ADBR2 [5] = target: T2, ADBR2; experiment: GloSensor assay, ADBR2 control
# Description: as §4, §5
Compound,Human GPR174 CRE Activity: nature of compound (GPR174 [1]),effect on Gs pathway in the presence of GPR174 (GPR174 [1]),nature of compound in GPR174 signaling assay (GPR174 [1]; human GPR174 with pCRE-Luc),modulation of Gs pathway in the presence of GPR174 (GloSensor) (GPR174 [2]; compound alone),competition with GPR174 agonist LysoPS (GloSensor) (GPR174 [2]; fixed 1 μM LysoPS),dose-response in CRA against GPR174 (GPR174 [3]),effect on Gs pathway in the presence of ADBR2 (ADBR2 [4]),activity in CRA against CHRM1 (CHRM1),modulation of Gs signaling in the presence of ADBR (GloSensor) (ADBR2 [5])
CCCC(=O)c1ccc(N2CCN(S(=O)(=O)c3ccc(C)cc3)CC2)c(F)c1 [Compound 4],Antagonist,did not modulate the Gs pathway,GPR174 antagonist,does not modulate the Gs pathway,does compete with the GPR174 agonist LysoPS,show a dose-response curve against GPR174,did not modulate the Gs pathway,do not show any activity against CHRM1,neither compound #4 nor LysoPS modulate Gs signaling
CC(=O)N1CCN(c2cc(N3CCCCC3)c(F)cc2[N+](=O)[O-])CC1 [Compound 2],–,inhibited the Gs pathway,–,–,–,show a dose-response curve against GPR174,did not inhibit the Gs pathway,do not show any activity against CHRM1,–
"lysophosphatidylserine [LysoPS, reference compound]",–,–,–,–,–,–,–,–,neither compound #4 nor LysoPS modulate Gs signaling
CCOC(=O)N1CCN(c2cc(N3CCC(C)CC3)c(F)cc2[N+](=O)[O-])CC1 [Compound 1],–,inhibited the Gs pathway,–,–,–,show a dose-response curve against GPR174,did not inhibit the Gs pathway,do not show any activity against CHRM1,–

# Reference: patent US20230321083A1, “Inhibitors of GPR174 and Uses Thereof” (Omeros Corporation, priority 2016, published 2023)
